According to PubChem BioAssay AID1963838 (Molecular Pharmacology Branch, DTP, NCI, 2024):

System: 855422-203-R-J1-PDC complex spheroid viability
Assay: Anticancer human tumor 855422-203-R-J1-PDC patient-derived bladder carcinoma cell line growth inhibition [POLQ]
Conditions: for IC50: curve of first compound; for viability, T/C: stronger effect = lower value
Protocol: Multicellular complex tumor spheroid response to Polymerase (POL) inhibitors (novobiocin, ART-558, RP6685) in combination with a variety of drugs and investigational agents in selected tumor cell lines
The POL inhibitors (novobiocin, ART-558, and RP6685) were evaluated both individually and in combination with standard of care and investigational anticancer small molecules within a complex spheroid model of solid tumors. . Complex spheroids include a stromal component modeled by human endothelial cells (HUVEC) and fibroblasts modeled by human mesenchymal stem cells (MSCs). The concentration ranges selected for each drug and investigational agent were based upon clinically achievable concentrations if the clinical Cmax of the agent was known.
Compounds. The drugs and investigational agents: novobiocin (NSC847541), ART-558 (NSC835418), RP-6685 (NSC848927), peposertib (NSC802822), ceralasertib (NSC780249), elimusertib (NSC800525), camonsertib (NSC841442), AZD-1390 (NSC803789), olaparib (NSC753686), talazoparib (NSC767125), rucaparib (NSC756644), sotorasib (NSC818433), MRTX-1133 (NSC836407), SN-38 (NSC673596), topotecan (NSC609699), epotoside (NSC141540), doxorubicin (NSC123127), gemcitabine (NSC613327), 5-fluorouracil (NSC19893), paclitaxel (NSC125973), vemurafenib (NSC761431), MSA-2 (NSC828583), SN-011 (NSC837082), adavosertib (NSC754352), prexasertib (NSC758257), carboplatin (NSC241240) and oxaliplatin (NSC266046), were obtained from the National Cancer Institute (NCI) Developmental Therapeutics Program Chemical Repository (21). The FDA-approved anticancer drug set is available from the Developmental Therapeutics Program at https://dtp.cancer.gov/organization/dscb/obtaining/. […] The stock solutions were prepared in dimethyl sulfoxide (DMSO, Sigma-Aldrich, St. Louis, MO, cat. D2650), except for the platinum compounds which were prepared in saline (Quality Biological, Gaithersburg, MD, cat. 114-055-101), at 800-fold the tested concentration and stored at -70 degrees C prior to their use. All drugs and investigational agents were tested over a range starting from a high concentration at or near the clinical Cmax and decreasing in half-log increments. If the clinical Cmax for an agent had not been determined, the highest concentration tested was 10 microM, except for SN-38, which was tested at a high concentration of 1 microM.
Cell Culture. All cells were maintained in an incubator at 37 degrees C and 5% CO2 with 95% humidity. The PDC lines were cultured according to standard operating procedures established by the NCI PDMR (https://pdmr.cancer.gov). Table 3 of the manuscript, lists the cell lines along with the number of the three cell types plated to form the mct-spheroids and media for tumor cell growth. After thawing, all PDC lines, except 997537-175-T-J1-PDC and 415267-285-R-J2-PDC, were cultured in Matrigel-coated flasks prepared with a working solution of 1X Ham's F-12 nutrient mix, without supplementation (Thermo Fisher Scientific, cat. 11765054), 100 U/mL penicillin-streptomycin (Thermo Fisher Scientific, cat. 15140122), and 2.5% Matrigel (Corning Inc., Corning, NY, cat. 354248) for the first three passages. The two PDC lines 997537-175-T-J1-PDC and 415267-285-R-J2-PDC were cultured on uncoated flasks. The 857933-349-R-J2-PDC line was cultured in 6C/Colon 1B media containing advanced DMEM/F-12 (Thermo Fisher Scientific, cat. 12634028), 10 mM HEPES (Thermo Fisher Scientific, cat. 15630080), 1X GlutaMAX supplement (Thermo Fisher Scientific, cat. 35050061), 0.1 mg/mL primocin (InvivoGen, San Diego, CA, cat. ant-pm-2), 10% defined fetal bovine serum, heat inactivated (HyClone Laboratories Inc., Logan, UT, cat. SH30070.03HI), 50% L-WRN conditioned media (ATCC, cat. CRL-3276), 1.25 mM N-Acetyl-L-cysteine (Sigma-Aldrich, cat. A9165), 10 mM nicotinamide (Sigma-Aldrich, cat. N0636), 1X B-27 supplement (Thermo Fisher Scientific, cat. 17504044), 1X N-2 supplement (Thermo Fisher Scientific, cat. […]

[1] = second compound 0.0316 µM, first compound 0.0316 µM
[2] = second compound 0.0316 µM, first compound 0.1 µM
[3] = second compound 0.1 µM, first compound 0.0316 µM
[4] = second compound 0.1 µM, first compound 0.1 µM
[5] = second compound 0.316 µM, first compound 0.0316 µM
[6] = second compound 0.316 µM, first compound 0.1 µM
[7] = second compound 1 µM, first compound 0.0316 µM
[8] = second compound 1 µM, first compound 0.1 µM
[9] = second compound 3.16 µM, first compound 0.0316 µM
[10] = second compound 3.16 µM, first compound 0.1 µM
[11] = second compound 10 µM, first compound 0.0316 µM
[12] = second compound 10 µM, first compound 0.1 µM
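Note: spheroids exposed to compounds for seven days before readout.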

C#Cc1c(F)ccc2cc(O)cc(-c3ncc4c(N5CC6CCC(C5)N6)nc(OCC56CCCN5CC(F)C6)nc4c3F)c12 (centres undefined) + COC1C(OC(N)=O)C(O)C(Oc2ccc3c(O)c(NC(=O)c4ccc(O)c(CC=C(C)C)c4)c(=O)oc3c2C)OC1(C)C
IC50 (second compound 0.0316 µM): > 10 µM
IC50 (second compound 0.1 µM): > 10 µM
IC50 (second compound 0.316 µM): > 10 µM
IC50 (second compound 1 µM): > 10 µM
IC50 (second compound 3.16 µM): > 10 µM
IC50 (second compound 10 µM): > 10 µM
viability, T/C [1]: 102%
viability, T/C [2]: 105%
viability, T/C (second compound 0.0316 µM, first compound 0.316 µM): 96.1%
viability, T/C (second compound 0.0316 µM, first compound 1 µM): 109%
viability, T/C (second compound 0.0316 µM, first compound 3.16 µM): 123%
viability, T/C (second compound 0.0316 µM, first compound 10 µM): 120%
viability, T/C [3]: 103%
viability, T/C [4]: 114%
viability, T/C (second compound 0.1 µM, first compound 0.316 µM): 98.4%
viability, T/C (second compound 0.1 µM, first compound 1 µM): 108%
viability, T/C (second compound 0.1 µM, first compound 3.16 µM): 102%
viability, T/C (second compound 0.1 µM, first compound 10 µM): 108%
viability, T/C [5]: 108%
viability, T/C [6]: 103%
viability, T/C (second compound 0.316 µM, first compound 0.316 µM): 122%
viability, T/C (second compound 0.316 µM, first compound 1 µM): 115%
viability, T/C (second compound 0.316 µM, first compound 3.16 µM): 114%
viability, T/C (second compound 0.316 µM, first compound 10 µM): 117%
viability, T/C [7]: 103%
viability, T/C [8]: 97.3%
viability, T/C (second compound 1 µM, first compound 0.316 µM): 117%
viability, T/C (second compound 1 µM, first compound 1 µM): 115%
viability, T/C (second compound 1 µM, first compound 3.16 µM): 120%
viability, T/C (second compound 1 µM, first compound 10 µM): 111%
viability, T/C [9]: 107%
viability, T/C [10]: 109%
viability, T/C (second compound 3.16 µM, first compound 0.316 µM): 123%
viability, T/C (second compound 3.16 µM, first compound 1 µM): 111%
viability, T/C (second compound 3.16 µM, first compound 3.16 µM): 96.5%
viability, T/C (second compound 3.16 µM, first compound 10 µM): 99.2%
viability, T/C [11]: 102%
viability, T/C [12]: 104%
viability, T/C (second compound 10 µM, first compound 0.316 µM): 108%
viability, T/C (second compound 10 µM, first compound 1 µM): 117%
viability, T/C (second compound 10 µM, first compound 3.16 µM): 112%
viability, T/C (second compound 10 µM, first compound 10 µM): 115%

Cn1ncnc1[C@H]1c2n[nH]c(=O)c3cc(F)cc(c23)N[C@@H]1c1ccc(F)cc1 + COC1C(OC(N)=O)C(O)C(Oc2ccc3c(O)c(NC(=O)c4ccc(O)c(CC=C(C)C)c4)c(=O)oc3c2C)OC1(C)C
IC50 (second compound 0.0316 µM): > 0.1 µM
IC50 (second compound 0.1 µM): > 0.1 µM
IC50 (second compound 0.316 µM): > 0.1 µM
IC50 (second compound 1 µM): > 0.1 µM
IC50 (second compound 3.16 µM): > 0.1 µM
IC50 (second compound 10 µM): > 0.1 µM
viability, T/C (second compound 0.0316 µM, first compound 0.000316 µM): 94.6%
viability, T/C (second compound 0.0316 µM, first compound 0.001 µM): 104%
viability, T/C (second compound 0.0316 µM, first compound 0.00316 µM): 116%
viability, T/C (second compound 0.0316 µM, first compound 0.01 µM): 106%
viability, T/C [1]: 108%
viability, T/C [2]: 108%
viability, T/C (second compound 0.1 µM, first compound 0.000316 µM): 81.8%
viability, T/C (second compound 0.1 µM, first compound 0.001 µM): 93.8%
viability, T/C (second compound 0.1 µM, first compound 0.00316 µM): 113%
viability, T/C (second compound 0.1 µM, first compound 0.01 µM): 95.3%
viability, T/C [3]: 99.7%
viability, T/C [4]: 96.6%
viability, T/C (second compound 0.316 µM, first compound 0.000316 µM): 106%
viability, T/C (second compound 0.316 µM, first compound 0.001 µM): 106%
viability, T/C (second compound 0.316 µM, first compound 0.00316 µM): 101%
viability, T/C (second compound 0.316 µM, first compound 0.01 µM): 108%
viability, T/C [5]: 95.4%
viability, T/C [6]: 118%
viability, T/C (second compound 1 µM, first compound 0.000316 µM): 110%
viability, T/C (second compound 1 µM, first compound 0.001 µM): 99.7%
viability, T/C (second compound 1 µM, first compound 0.00316 µM): 106%
viability, T/C (second compound 1 µM, first compound 0.01 µM): 107%
viability, T/C [7]: 103%
viability, T/C [8]: 95.9%
viability, T/C (second compound 3.16 µM, first compound 0.000316 µM): 105%
viability, T/C (second compound 3.16 µM, first compound 0.001 µM): 106%
viability, T/C (second compound 3.16 µM, first compound 0.00316 µM): 98.2%
viability, T/C (second compound 3.16 µM, first compound 0.01 µM): 94.4%
viability, T/C [9]: 95.9%
viability, T/C [10]: 102%
viability, T/C (second compound 10 µM, first compound 0.000316 µM): 108%
viability, T/C (second compound 10 µM, first compound 0.001 µM): 97.2%
viability, T/C (second compound 10 µM, first compound 0.00316 µM): 101%
viability, T/C (second compound 10 µM, first compound 0.01 µM): 109%
viability, T/C [11]: 100%
viability, T/C [12]: 84%
